Read-outs that look alike come from different tables or passages of the source. One block for each compound: values may come before it.
What was measured:
[1] = molecular target: human recombinant ATM (Homo sapiens (Human), UniProt Q13315); experiment: ATM kinase assay (IC50 ATM), TR-FRET; type: biochemical
Procedure: ATM Kinase Assay—Determination of ATM Inhibition (IC50 ATM):
The IC50 value was determined with the aid of a biochemical ATM kinase assay. The assay consists of two steps: the enzymatic reaction and the detection step. Firstly, ATM (ataxia telangiectasia mutated) protein and the test substance are incubated at different concentrations with addition of substrate protein p53 and ATP. ATM mediates the phosphorylation of p53 at several positions, including at amino acid S15. The amount of phosphorylated p53 is determined with the aid of specific antibodies and the TR-FRET technique. The enzymatic ATM assay is carried out as TR-FRET (HTRF™, Cisbio Bioassays) based 384-well assay. In the first step, purified human recombinant ATM (human ATM, full length, GenBank ID NM_000051, expressed in a mammal cell line) is incubated in assay buffer for 15 minutes with the ATM inhibitor in various concentrations and without test substance as negative or neutral control. The assay buffer comprises 25 mM HEPES pH 8.0, 10 mM Mg(CH3COO)2, 1 mM MnCl2, 0.1% BSA and 0.01% Brij® 35, 5 mM dithiothreitol (DTT). […] In the second step, purified human recombinant cmyc-labelled p53 (human p53, full length, GenBank ID BC003596, expressed in Sf21 insect cells) and ATP are added, and the reaction mixture is incubated at 22° C. for 30-35 minutes. The pharmacologically relevant assay volume is 5 μl. […] The enzymatic reaction is stopped by addition of EDTA. […] After incubation, usually for 2 hours (between 1.5 and 15 h), for signal development, the plates are analysed in a plate reader (EnVision, PerkinElmer) using TRF mode (and with laser excitation). […] The measurement data were processed by means of Genedata Screener software. IC50 determinations are carried out, in particular, by fitting a dose/action curve to the data points by means of nonlinear regression analysis.

[2] = molecular target: PI3K p110δ/p85α (human) (Homo sapiens (Human), UniProt O00329); experiment: PI3K p110δ/p85α (human), non-radioactive assay (HTRF); type: biochemical; conditions: read-out: IC50 (PI3Kdelta)
Procedure: (§1) The reaction was initiated by addition of MgATP solution. After an incubation time of 30 min at room temperature, the reaction was stopped by addition of a solution consisting of EDTA and biotinylated phosphatidylinositol 3,4,5-trisphosphate. Finally, the detection buffer, consisting of a europium-labelled anti-GST monoclonal antibody, a GST-labelled GRP1 PH domain and streptavidin allophycocyanin, was added. The plate was read out via homogeneous time-resolved fluorescence (HTRF) and the corresponding signals were evaluated via the formula HTRF=10000×(Em665 nm/Em620 nm).

[3] = molecular target: PI3K p110α/p85α (human) (Homo sapiens (Human), UniProt P42336); experiment: PI3K p110α/p85α (human), non-radioactive assay (HTRF); type: biochemical; conditions: read-out: IC50 (PI3Kalpha)
Procedure: as §1, with “After” for “After an”, “incubation” for “incubation time of 30 min”, “temperature for 40 minutes,” for “temperature,”

[4] = molecular target: mTOR (human) (Homo sapiens (Human), UniProt P42345); experiment: mTOR (human) radiometric kinase assay; type: biochemical
Procedure: mTOR (human) was incubated with 50 mM HEPES pH 7.5, 1 mM EGTA, 0.01% Tween 20, 2 mg/ml of the substrate, 3 mM MnCl2 and [γ-^33P-ATP] (specific activity approximately 500 cpm/pmol, concentration as necessary). The reaction was initiated by addition of MgATP solution. After incubation at room temperature for 40 minutes, the reaction was stopped by addition of 3% phosphoric acid. 10 μl of the reaction solution were then transferred dropwise onto a P30 filtermat and washed three times for 5 min in 75 mM phosphoric acid and once in methanol, dried and evaluated by means of liquid scintillation counting.

[5] = molecular target: PI3K (p120γ) (human) (Homo sapiens (Human), UniProt P48736); experiment: PI3K (p120γ) (human), non-radioactive assay (HTRF); type: biochemical; conditions: read-out: IC50 (PI3Kgamma)
Procedure: as §1, with “added.” for “added. The plate was read out via homogeneous time-resolved fluorescence (HTRF) and the corresponding signals were evaluated via the formula HTRF=10000×(Em665 nm/Em620 nm).”

[6] = molecular target: PI3K p110β/p85α (human) (Homo sapiens (Human), UniProt P42338); experiment: PI3K p110β/p85α (human), non-radioactive assay (HTRF); type: biochemical
Procedure: PI3K p110β/p85a (Human), Non-Radioactive Assay
as §1, with “PI3K p110β/p85α (human) was incubated in an assay buffer comprising 10 μM phosphatidylinositol 4,5-bisphosphate and MgATP (concentration as necessary). The reaction” for “The reaction”

[7] = test system: CHK2 phosphorylation (phospho-Thr68) in HCT116 cells; experiment: Cellular pCHK2 assay, bleomycin-induced phosphorylation of CHK2 (phospho-Thr68), immunofluorescence high content; type: cell-based; conditions: Homo sapiens, read-out: IC50 (pCHK2)
Description: For the identification of substances which inhibit the phosphorylation of the protein kinase CHK2 at the amino acid threonine 68, an immunofluorescence-based “high content” analysis assay was used in HCT116 cells.
In vitro cell-based immunofluorescence assay for the identification of inhibitors of bleomycin-induced phosphorylation of CHK2 (phospho-Thr68) in the human colon carcinoma cell line HCT116:
HCT116 cells are sown out in a defined cell density in 384-well plates in culture medium (DMEM high glucose, 2 mM GlutaMax, 1 mM Na pyruvate, 10% FCS) and incubated overnight at 37° C. and 10% of CO2. On the following day, the test substances are added in a defined concentration range (1 nM to 30 μM) in combination with 10 μM bleomycin, where the concentration of the solvent DMSO is kept constant at 0.5%. After incubation for four hours at 37° C. and 10% of CO2, the cells are fixed (5 min, 4% formaldehyde in PBS), permeabilised (10 min, 0.2% Triton X-100 in PBS) and, after blocking of nonspecific binding sites (10% goat serum, 1% BSA in PBS), incubated overnight at 4° C. with a specific anti-pCHK2 antibody (cell signalling #2661). pCHK2 (Thr68) is determined using an Alexa488-labelled secondary anti-rabbit IgG antibody. Parallel staining of DNA with propidium iodide enables determination of the cell count. The pCHK2 signal is detected using a high-content imager (Molecular Devices IMX Ultra) and automatic image analysis using the MetaXpress software belonging to the instrument. The number of cell nuclei which have a pCHK2 signal above a defined background is determined.

[8] = HCT-116, HCT116 cells, 10 μM bleomycin, 4 h

Chain of human recombinant ATM (Q13315 whole entry): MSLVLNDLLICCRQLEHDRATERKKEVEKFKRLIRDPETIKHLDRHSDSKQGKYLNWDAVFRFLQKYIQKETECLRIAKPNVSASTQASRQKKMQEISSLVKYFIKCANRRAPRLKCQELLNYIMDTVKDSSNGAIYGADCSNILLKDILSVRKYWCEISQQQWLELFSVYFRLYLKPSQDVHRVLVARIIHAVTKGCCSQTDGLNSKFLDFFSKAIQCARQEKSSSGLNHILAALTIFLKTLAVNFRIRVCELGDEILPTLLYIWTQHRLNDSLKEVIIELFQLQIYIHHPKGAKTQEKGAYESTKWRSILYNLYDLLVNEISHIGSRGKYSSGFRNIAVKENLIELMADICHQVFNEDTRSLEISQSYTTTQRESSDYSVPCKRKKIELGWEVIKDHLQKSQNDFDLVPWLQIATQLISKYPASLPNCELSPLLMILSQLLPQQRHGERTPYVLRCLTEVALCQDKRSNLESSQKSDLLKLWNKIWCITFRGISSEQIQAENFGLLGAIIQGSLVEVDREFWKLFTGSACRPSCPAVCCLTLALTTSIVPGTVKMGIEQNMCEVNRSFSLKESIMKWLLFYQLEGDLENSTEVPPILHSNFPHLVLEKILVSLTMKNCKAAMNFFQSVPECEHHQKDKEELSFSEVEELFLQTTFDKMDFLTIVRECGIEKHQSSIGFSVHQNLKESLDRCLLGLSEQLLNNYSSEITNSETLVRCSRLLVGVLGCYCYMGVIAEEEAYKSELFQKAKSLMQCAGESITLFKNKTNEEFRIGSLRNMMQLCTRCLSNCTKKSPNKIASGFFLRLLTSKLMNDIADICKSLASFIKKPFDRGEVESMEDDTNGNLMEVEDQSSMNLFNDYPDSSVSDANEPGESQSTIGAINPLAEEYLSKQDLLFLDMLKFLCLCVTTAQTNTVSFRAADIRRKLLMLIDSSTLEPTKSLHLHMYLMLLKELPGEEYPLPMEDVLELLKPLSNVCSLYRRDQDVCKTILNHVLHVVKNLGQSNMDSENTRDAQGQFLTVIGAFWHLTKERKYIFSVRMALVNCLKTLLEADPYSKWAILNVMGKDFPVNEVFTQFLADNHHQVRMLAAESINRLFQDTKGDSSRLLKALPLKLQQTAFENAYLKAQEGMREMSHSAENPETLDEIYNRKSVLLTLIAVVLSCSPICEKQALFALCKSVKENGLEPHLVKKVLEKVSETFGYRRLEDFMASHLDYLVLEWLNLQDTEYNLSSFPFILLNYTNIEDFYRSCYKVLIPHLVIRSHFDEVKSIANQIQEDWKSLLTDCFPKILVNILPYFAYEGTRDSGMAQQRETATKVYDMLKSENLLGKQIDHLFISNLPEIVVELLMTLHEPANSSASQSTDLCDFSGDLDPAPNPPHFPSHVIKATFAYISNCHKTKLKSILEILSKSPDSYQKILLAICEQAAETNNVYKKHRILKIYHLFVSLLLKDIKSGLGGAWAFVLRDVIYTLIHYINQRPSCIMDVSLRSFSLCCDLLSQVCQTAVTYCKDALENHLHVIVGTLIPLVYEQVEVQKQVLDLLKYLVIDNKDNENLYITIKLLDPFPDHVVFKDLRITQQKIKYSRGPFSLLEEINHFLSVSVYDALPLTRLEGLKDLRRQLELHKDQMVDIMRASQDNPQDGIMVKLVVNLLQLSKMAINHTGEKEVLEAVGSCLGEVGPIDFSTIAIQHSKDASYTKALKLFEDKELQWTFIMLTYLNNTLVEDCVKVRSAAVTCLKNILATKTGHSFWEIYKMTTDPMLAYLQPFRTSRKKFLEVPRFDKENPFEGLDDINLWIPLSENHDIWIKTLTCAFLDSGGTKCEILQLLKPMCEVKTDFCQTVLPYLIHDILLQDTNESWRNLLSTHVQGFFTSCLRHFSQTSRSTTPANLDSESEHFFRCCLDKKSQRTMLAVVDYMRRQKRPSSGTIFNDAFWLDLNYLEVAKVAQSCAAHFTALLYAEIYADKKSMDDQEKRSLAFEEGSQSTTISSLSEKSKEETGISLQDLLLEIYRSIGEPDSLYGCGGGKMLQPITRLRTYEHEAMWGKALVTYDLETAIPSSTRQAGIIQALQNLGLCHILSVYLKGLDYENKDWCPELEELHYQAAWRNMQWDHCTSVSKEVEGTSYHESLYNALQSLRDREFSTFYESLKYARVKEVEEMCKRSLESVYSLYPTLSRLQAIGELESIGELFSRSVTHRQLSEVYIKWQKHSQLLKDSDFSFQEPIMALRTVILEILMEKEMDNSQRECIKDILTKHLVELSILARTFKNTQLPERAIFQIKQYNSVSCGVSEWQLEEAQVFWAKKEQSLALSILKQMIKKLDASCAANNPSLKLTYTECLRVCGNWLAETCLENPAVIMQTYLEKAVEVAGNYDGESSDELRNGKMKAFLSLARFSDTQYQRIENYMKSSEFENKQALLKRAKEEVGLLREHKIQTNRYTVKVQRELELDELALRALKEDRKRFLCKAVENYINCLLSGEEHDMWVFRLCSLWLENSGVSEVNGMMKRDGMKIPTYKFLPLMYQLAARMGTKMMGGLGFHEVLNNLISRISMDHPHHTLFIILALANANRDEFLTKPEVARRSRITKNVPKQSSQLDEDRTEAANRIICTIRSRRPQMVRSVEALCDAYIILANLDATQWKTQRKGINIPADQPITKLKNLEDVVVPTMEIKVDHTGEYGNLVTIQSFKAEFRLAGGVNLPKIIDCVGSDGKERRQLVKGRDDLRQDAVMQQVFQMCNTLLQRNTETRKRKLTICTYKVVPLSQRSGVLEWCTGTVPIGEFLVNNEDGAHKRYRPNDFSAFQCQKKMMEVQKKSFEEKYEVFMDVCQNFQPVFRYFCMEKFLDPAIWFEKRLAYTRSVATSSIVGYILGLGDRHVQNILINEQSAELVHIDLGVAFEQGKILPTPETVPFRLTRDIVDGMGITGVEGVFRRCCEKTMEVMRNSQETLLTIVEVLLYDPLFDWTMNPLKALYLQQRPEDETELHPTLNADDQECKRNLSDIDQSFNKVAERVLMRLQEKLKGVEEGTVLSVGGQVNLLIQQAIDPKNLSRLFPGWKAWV
Chain of PI3K p110β/p85α (human) (P42338 whole entry): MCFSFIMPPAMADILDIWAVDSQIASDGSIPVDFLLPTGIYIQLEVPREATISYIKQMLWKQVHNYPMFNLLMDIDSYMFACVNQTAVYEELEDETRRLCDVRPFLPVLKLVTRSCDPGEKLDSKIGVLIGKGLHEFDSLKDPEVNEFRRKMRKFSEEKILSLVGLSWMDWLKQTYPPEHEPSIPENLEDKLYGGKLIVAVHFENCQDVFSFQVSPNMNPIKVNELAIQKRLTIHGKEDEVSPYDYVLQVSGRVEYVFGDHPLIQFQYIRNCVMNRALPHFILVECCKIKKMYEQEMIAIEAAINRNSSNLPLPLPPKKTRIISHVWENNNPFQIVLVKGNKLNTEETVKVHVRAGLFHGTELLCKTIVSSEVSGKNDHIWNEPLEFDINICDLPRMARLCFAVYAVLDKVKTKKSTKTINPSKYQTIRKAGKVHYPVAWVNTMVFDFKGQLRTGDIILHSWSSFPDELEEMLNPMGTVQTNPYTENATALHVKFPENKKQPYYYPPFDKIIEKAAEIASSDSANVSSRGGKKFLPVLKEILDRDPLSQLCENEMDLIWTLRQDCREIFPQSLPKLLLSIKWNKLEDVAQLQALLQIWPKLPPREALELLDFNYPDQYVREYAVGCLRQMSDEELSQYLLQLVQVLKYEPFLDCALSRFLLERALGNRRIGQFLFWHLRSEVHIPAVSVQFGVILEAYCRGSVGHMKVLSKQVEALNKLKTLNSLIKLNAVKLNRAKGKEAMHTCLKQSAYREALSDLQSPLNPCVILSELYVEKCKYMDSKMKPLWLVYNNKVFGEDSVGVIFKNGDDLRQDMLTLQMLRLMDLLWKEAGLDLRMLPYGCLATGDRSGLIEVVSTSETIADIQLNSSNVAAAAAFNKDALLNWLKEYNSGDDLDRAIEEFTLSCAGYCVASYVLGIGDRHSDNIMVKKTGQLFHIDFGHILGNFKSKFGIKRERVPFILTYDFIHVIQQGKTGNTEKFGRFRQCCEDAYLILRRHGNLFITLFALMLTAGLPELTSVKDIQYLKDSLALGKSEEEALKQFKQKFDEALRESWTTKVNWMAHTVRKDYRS
Chain of PI3K p110β/p85α (human) (P27986 whole entry partner): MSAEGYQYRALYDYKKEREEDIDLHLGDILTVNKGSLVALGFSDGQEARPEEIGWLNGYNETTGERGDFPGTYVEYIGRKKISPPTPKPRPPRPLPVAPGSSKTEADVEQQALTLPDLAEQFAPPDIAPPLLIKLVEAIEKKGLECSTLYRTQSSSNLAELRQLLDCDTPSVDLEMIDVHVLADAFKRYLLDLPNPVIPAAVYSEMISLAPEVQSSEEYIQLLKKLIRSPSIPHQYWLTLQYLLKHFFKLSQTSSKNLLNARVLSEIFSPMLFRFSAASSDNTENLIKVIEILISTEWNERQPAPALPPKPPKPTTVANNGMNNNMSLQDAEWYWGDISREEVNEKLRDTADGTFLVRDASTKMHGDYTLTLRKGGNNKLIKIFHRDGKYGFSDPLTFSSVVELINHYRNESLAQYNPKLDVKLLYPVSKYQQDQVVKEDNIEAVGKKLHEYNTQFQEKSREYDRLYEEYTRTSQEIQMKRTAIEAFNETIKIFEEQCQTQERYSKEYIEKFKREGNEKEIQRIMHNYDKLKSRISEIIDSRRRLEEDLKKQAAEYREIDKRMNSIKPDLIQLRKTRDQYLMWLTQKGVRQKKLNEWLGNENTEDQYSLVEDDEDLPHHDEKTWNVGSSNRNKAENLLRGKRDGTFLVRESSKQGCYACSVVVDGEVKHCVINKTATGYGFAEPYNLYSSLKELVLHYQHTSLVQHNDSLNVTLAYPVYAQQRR

IC50 ([1]; 10 μM ATP, p53 substrate): < 1 nM
Structure (SMILES): COc1cc2ncc3c(c2cc1-c1cnn(C)c1)n(-c1ncc(F)cc1F)c(=O)n3C [Compound Example 1, 1-(3,5-Difluoropyridin-2-yl)-7-methoxy-3-methyl-8-(1-methyl-1H-pyrazol-4-yl)-1,3-dihydroimidazo[4,5-c] quinolin-2-one]

Structure (SMILES): CCn1cc(-c2cc3c(cc2OC)ncc2c3n(-c3c(F)cncc3OC)c(=O)n2C)cn1 [Example 13]
IC50 [2]: > 10 µM
IC50 [3]: > 5 µM
IC50 [4]: > 10 µM
IC50 [5]: > 30 µM
IC50 [1]: < 1 nM
IC50 ([1]; 10 μM ATP, p53 substrate): < 1 nM
IC50 ([6]; read-out: IC50 (PI3Kbeta)): > 30 µM
IC50 ([7]; HCT-116, 4 h): < 200 nM

IC50 ([1]; 10 μM ATP, p53 substrate): < 1 nM
Structure (SMILES): COc1cc2ncc3c(c2cc1-c1cnn(C)c1)n(-c1ncc(OCCO)cc1F)c(=O)n3C [compound 67, 1-[3-Fluoro-5-(2-hydroxy-ethoxy)-2-pyridyl]-7-methoxy-3-methyl-8-(1-methylpyrazol-4-yl)imidazo-[4,5-c]quinolin-2-one]

IC50 ([1]; 10 μM ATP, p53 substrate): < 50 nM
IC50 [7, 8]: 200 to 1000 nM
Structure (SMILES): COc1cc2ncc3c(c2cc1-c1cnn(C)n1)n(-c1c(C)cncc1F)c(=O)n3C [compound 103, 1-(3-Fluoro-5-methylpyridin-4-yl)-7-methoxy-3-methyl-8-(2-methyl-2H-1,2,3-triazol-4-yl)-1,3-dihydroimidazo-[4,5-c]quinolin-2-one]

Structure (SMILES): COc1ccc(-c2cc3c(cc2OC)ncc2c3n(-c3c(F)cncc3OC)c(=O)n2C)cn1 [compound 137, 1-(3-Fluoro-5-methoxy-pyridin-4-yl)-7-methoxy-8-(6-methoxypyridin-3-yl)-3-methyl-1,3-dihydroimidazo-[4,5-c]quinolin-2-one]
ratio IC50 (ATM):IC50(PI3Kbeta), selectivity with respect to PI3Kbeta ([6]; IC50 (ATM) at least 2000 times higher compared with IC50 (PI3Kbeta)): at least 2000 times
IC50 [7, 8]: 200 to 1000 nM

Source: patent US10745399B2 (priority 2015, dated 2020)
